According to US20240093034A1, “FLUORESCENT DYES” (EXOPHARM LIMITED, priority 2020, published 2024):

Experiments:
[1] = tested on: normal human dermal fibroblasts (NHDF); experiment: Labelling of human cells with dyes (plate fluorescence); format: cell-based; conditions: 2 μM dye, 1 hr 37° C., washed with HBSS; higher = more incorporation
Experimental: Labelling of human cells with dyes 1-10 was performed according to the following procedure. Each well of a Costar 96 well flat bottom plate was seeded with 5,000 normal human dermal fibroblasts (NHDF; not older than P9) and allowed to attach overnight in full media: fibroblast growth media (Lonza)+2% v/v fetal calf serum. Each dye was diluted 1:50 from a stock of 1 mM with 10 mM L-histidine, 150 mM NaCl, pH 6.0, to a final concentration of 20 μM. The dye was subsequently added to full media at a further 1:10 dilution to a final concentration of 2 μM. The media on the cells was subsequently replaced with the freshly prepared full media containing the dye. For negative controls, an equivalent volume of the diluent solution was added to the cell solution. Cells were incubated for 1 hr at 37° C. and then washed with 1 xHBSS (Hank's balanced salt solution) to remove free dye. Plate was imaged using the CLARIOStar spectrophotometer (5x5 matrix mode, average of 25 data points, 3 wells for each dye). A higher fluorescence indicates a higher amount of incorporation into the cells.

[2] = tested on: MSC-EVs; experiment: Dye labelling of MSC-EV preparations analysed by imaging flow cytometry (IFCM)
Experimental: MSC-EVs were prepared form human platelet lysate containing MSC-conditioned media by polyethylene glycol 6000 precipitation followed by ultracentrifugation, as described previously (Borger, V. et al, 2020, Scaled Isolation of Mesenchymal Stem/Stromal Cell-Derived Extracellular Vesicles. Curr Protoc Stem Cell Biol 55, e128; Kordelas et al., 2014, MSC-derived exosomes: a novel tool to treat therapy-refractory graft-versus-host disease. Leukemia 28, 970-973; Ludwig et al., 2018, Precipitation with polyethylene glycol followed by washing and pelleting by ultracentrifugation enriches extracellular vesicles from tissue culture supernatants in small and large scales. J Extracell Vesicles 7, 1528109). Conditioned media were harvested every 48 h. Obtained MSC-EV preparations were diluted in NaCl-HEPES buffer (Sigma-Aldrich, Taufkirchen, Germany) such that 1 mL of final samples contained the preparation yield of the conditioned media of approximately 4.0×10^7 cells.
The staining with CFSE (Thermo Fisher Scientific, Darmstadt, Germany) was based on the manufacturer's protocol. Slight modifications were required to reduce the signal from unbound CFSE. Briefly, the CFSE stock solution was diluted to a working solution of 10 μM CFSE. The solution was centrifuged three times for 10 min at 17,000 × g. Subsequently, 25 μL of MSC-EV preparations, corresponding to the amount of EVs derived from 1×10^6 MSCs, were incubated with the centrifuged CFSE solution for 20 min at 37° C. The sample was diluted 1:20 to a final volume of 1 mL prior to analysis.
The staining of MSC-EV preparations with Calcein AM followed the manufacturer's instructions. Briefly, 25 μL of MSC-EV preparations were incubated with 25 μL of a 20 μM solution of Calcein AM (Thermo Fisher Scientific) for 40 min at 37° C. The sample was diluted 1:20 to a final volume of 1 mL to reduce background noise, avoiding the requirement of a washing step.
The staining of MSC-EV preparations with BODIPY-TR-Ceramide followed the manufacturer's instructions. Briefly, 25 μL of the MSC-EV preparation, corresponding to EVs purified from […], were incubated with 25 μL of a 20 μM solution of BODIPY TR Ceramide (Thermo Fisher Scientific) for 20 min at 37° C. 450 μL of 0.9% NaCl with 10mM HEPES (0.9% NaCl, Melsungen, B. Braun; HEPES, Thermo Fisher Scientific) buffer was added and the EVs were washed by using a Centrifugal Concentrator (Vivaspin 500; Sartorius, Gottingen, Germany). The retentate was adjusted to 500 μL prior to analysis.
The staining of MSC-EV preparations with PKH67 followed the manufacturer's instructions for labeling EVs (Thermo Fisher Scientific). Briefly, using 200 μL of given MSC-EV preparations, corresponding to EVs purified from 8×10^6 cells, the solution was adjusted with Diluent C to a final volume of 1 mL. […]

For `CCCCCCCCCCCCCCCCCCN(C)C(=O)c1ccccc1-c1c2ccc(=[N+](CC)CC)cc-2oc2cc(N(CC)CC)ccc12.[Cl-]` [Dye 2, Rhodamine B N-methyloctadecylamide], the FLD [1] was 123449, the “labelling of sEVs in MSC-EV preparations (conclusion)” value ([2]; IFCM, with anti-CD9, anti-CD63, anti-CD81 counterstaining where done) was “successfully labels most of the sEVs” and the “labelled objects in MSC-EV preparations (FIG. 8)” value ([2]; dye + MSC-EVs) was “solid populations of labelled objects were observed”.
